Experiment [1] has as its system oHSV-1 (G207) in BV2 cells. Kind of experiment: G207 replication in BV2 cells with chemical inhibitors, plaque forming assay. Type of experiment: cell-based, HSV-1. Particulars: G207 MOI of 1, 48 hours. As for the experimental part:
FIG. 12A contains bar graphs showing the results of BV2 cells that were pre-treated with indicated chemical compounds for 1-2 hours and then infected with oHSV-1 at an MOI of 1. Viruses were harvested after 48 hours of oHSV-1 (G207) and indicated chemical inhibitor treatment.
FIG. 12F is a bar graph showing the results of BV2 cells that were pre-treated with indicated chemical compounds for 1-2 hours and then infected with oHSV-1 at an MOI of 1. Viruses were harvested after 48 hours of oHSV-1 (G207) and indicated chemical inhibitor treatment. After 48 hours of treatment with oHSV-1 (G207) and C16, viruses were harvested and titrated by plaque forming assay on vero cells.
U87 (5×104) alone or U87+microglia co-culture (5×104+5×104) or BV2 microglia cells (5×104) alone were seeded into a 24-well plate. After overnight incubation (to allow the cells to attach), cells were pretreated with indicated concentration of NFkB inhibitor, Bay-11 (Santa Cruz, Canada) or an indicated concentration of imidazolo-oxindole derivative C16 (Milipore, Canada) or vehicle for 1-2 hours. The cells were then infected with oHSV-1 (G207 or HrR3) virus at a MOI of 1 in presence of chemical inhibitors for another 2 days. The viruses were harvested and titrated in vero cells by plaque forming assay in 12-well plates by triplicates.
The effects of a PKR inhibitor (C16), a NFkappaB inhibitor (Bay11), and an iNOS inhibitor (aminoguanidine hydrochloride) were tested on G207 replication in BV2 cells (Example 15). […] To verify that C16-mediated viral gene transcriptional augmentation is not due to deletions in ICP34.5 and/or ICP6 in G207, the effect of C16 on wild type (KOS) and ICP6 mutated (HrR3) HSV-1 infected BV2 cells was also examined. […] Finally, whether C16 can overcome this microglia-mediated suppression of viral replication in glioma cells was examined.

A further experiment concerns ICP4. Put plainly: Western blot of ICP4 in HSV-1 infected microglia cells. It is filed as cell-based. Conditions: G207 infected; 1 μM C16, 1 μM Bay11 or 100 μM AG; 24 hours. Here is the method: FIG. 12B depicts an electrophoresis gel showing total proteins that were harvested from G2O7 infected microglia cells at 24 hours post treatment with either 1 μM of C16, 1 μM of Bay11, or 100 μM of AG. ICP27, ICP4, and […] expression was measured by western blot assay. U87 and MG co-culture were pretreated with 0.5 μM of C16 for 1 hour.
Total protein was harvested with sample buffer (125 mM Tris-HCL, 50% Glycerol, […] and 5% 2-mercaptoethanol) and boiled for 5 minutes. Protein samples were subjected to SDS-PAGE (8% gel), transferred to nitrocellulose membranes and blocked in 5% nonfat milk (Bio Rad) in TBS-Tween 20 (TBS-T) for 1 hour at room temperature. The membranes were then incubated with primary antibody against β-actin at 1:1000 (Cell Signaling, Danvers, Mass.) or anti-STAT1 antibody at 1:1000 (Cell Signaling, Danvers, Mass.) or anti-STAT3 antibody at 1:1000 (Cell Signaling, Danvers, Mass.) or anti-phospho STAT1 antibody (Tyr701) at 1:1000 (Cell Signaling, Danvers, Mass.) or anti-phospho STAT3 antibody (Tyr705) at 1:1500 (Cell Signaling, Danvers, Mass.) or anti-phosphor-eIF2a antibody (ser51) at 1:1000 (Cell Signaling, Danvers, Mass.) or anti-ICP27 antibody at 1:1000 (Abcam, Cambridge, Mass.) or anti-ICP4 antibody at 1:750 (Abcam, Cambridge, Mass.) for overnight at 4° C. […] Band density was measured by using ImageJ software (NIH, Bethesda, Md.). […]

Structures are written as SMILES. Where a name gives a salt, the structure may show the parent alone.

Take `N=C(N)NN` [aminoguanidine hydrochloride]: the “effect on oHSV-1 replication” value in experiment [1] was “no effect on oHSV-1 replication”.

Turning to `Cc1ccc(S(=O)(=O)/C=C/C#N)cc1` [Bay11], in the experiment with ICP4, the “upregulated expression of ICP4” value was “not”. Further, the “effect on oHSV-1 replication” value in experiment [1] is recorded as “no effect on oHSV-1 replication”.
